Laboratory results as given in patent US12310975B2, “Modulators of BCL6 proteolysis and associated methods of use” (Arvinas Operations, Inc., priority 2019, dated 2025).
Read-outs that look alike come from different tables or passages of the source.

Target: BCL6 (Homo sapiens (Human), UniProt P41182)
Assay: Immunofluorescence high content imaging of BCL6 degradation in T47D cells
Assay type: cell-based
Outline: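 Seed T47D in RPMI1640-10% FBS to reach ~70-90% confluence at endpoint; add degrader next day (11-point 3-fold series, top 0.1 or 1 μM final) for 3 days. Then fix, permeabilize, stain BCL6 with nuclear Hoechst, and image.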

| IC50 [nM] | Dmax (T47D) [%] | Dmax (T47D cells) [%] | IC50 (T47D cells) [nM] | SMILES |
| --- | --- | --- | --- | --- |
| 10 to 50 | < 50 |  |  | CNC(=O)COc1cc2cc(Nc3cc(N4CCN(C(C)(C)C5CCN(c6ccc7c(c6)C(=O)N(C6CCC(=O)NC6=O)C7=O)CC5)CC4)ncc3Cl)ccc2n(C(C)C)c1=O (stereo not drawn) [compound 308, 2-{[6-({5-chloro-2-[4-(2-{1-[2-(2,6-dioxopiperidin-3-yl)-1,3-dioxo-2,3-dihydro-1H-isoindol-5-yl]piperidin-4-yl}propan-2-yl)piperazin-1-yl]pyridin-4-yl}amino)-2-oxo-1-(propan-2-yl)-1,2-dihydroquinolin-3-yl]oxy}-N-methylacetamide] |
| 10 to 50 | 50 to 70 |  |  | CCn1c(=O)c(OCC(=O)NC)cc2cc(Nc3nc(N4CCC(OC5CN(CC6CN(c7ccc8c(c7)C(=O)N(C7CCC(=O)NC7=O)C8=O)C6)C5)CC4)ncc3Cl)ccc21 (stereo not drawn) [compound 309, 2-[(6-{[5-chloro-2-(4-{[1-({1-[2-(2,6-dioxopiperidin-3-yl)-1,3-dioxo-2,3-dihydro-1H-isoindol-5-yl]azetidin-3-yl}methyl)azetidin-3-yl]oxy}piperidin-1-yl)pyrimidin-4-yl]amino}-1-ethyl-2-oxo-1,2-dihydroquinolin-3-yl)oxy]-N-methylacetamide] |
| < 10 | 50 to 70 |  |  | CCn1c(=O)c(OCC(=O)NC)cc2cc(Nc3nc(N4CCN(CC5CCN(c6cccc7c6C(=O)N(C6CCC(=O)NC6=O)C7=O)CC5)CC4)ncc3Cl)ccc21 (stereo not drawn) [compound 310, 2-{[6-({5-chloro-2-[4-({1-[2-(2,6-dioxopiperidin-3-yl)-1,3-dioxo-2,3-dihydro-1H-isoindol-4-yl]piperidin-4-yl}methyl)piperazin-1-yl]pyrimidin-4-yl}amino)-1-ethyl-2-oxo-1,2-dihydroquinolin-3-yl]oxy}-N-methylacetamide] |
| < 10 | ≥ 70 |  |  | CNC(=O)COc1cc2cc(Nc3nc(N4CCN(CC5CCN(c6cccc7c6C(=O)N(C6CCC(=O)NC6=O)C7=O)CC5)CC4)ncc3Cl)ccc2n(C(C)C)c1=O (stereo not drawn) [compound 311, 2-{[6-({5-chloro-2-[4-({1-[2-(2,6-dioxopiperidin-3-yl)-1,3-dioxo-2,3-dihydro-1H-isoindol-4-yl]piperidin-4-yl}methyl)piperazin-1-yl]pyrimidin-4-yl}amino)-2-oxo-1-(propan-2-yl)-1,2-dihydroquinolin-3-yl]oxy}-N-methylacetamide] |
| < 10 | ≥ 70 |  |  | CCn1c(=O)c(OCC(=O)NC)cc2cc(Nc3nc(N4CCN(C(C)(C)C5CCN(c6cccc7c6C(=O)N(C6CCC(=O)NC6=O)C7=O)CC5)CC4)ncc3Cl)ccc21 (stereo not drawn) [compound 312, 2-{[6-({5-chloro-2-[4-(2-{1-[2-(2,6-dioxopiperidin-3-yl)-1,3-dioxo-2,3-dihydro-1H-isoindol-4-yl]piperidin-4-yl}propan-2-yl)piperazin-1-yl]pyrimidin-4-yl}amino)-1-ethyl-2-oxo-1,2-dihydroquinolin-3-yl]oxy}-N-methylacetamide] |
| < 10 | 50 to 70 |  |  | CCn1c(=O)c(OCC(=O)NC)cc2cc(Nc3nc(N4CCN(C(C)(C)C5CCN(c6ccc7c(c6)CN(C6CCC(=O)NC6=O)C7=O)CC5)CC4)ncc3Cl)ccc21 (stereo not drawn) [compound 313, 2-{[6-({5-chloro-2-[4-(2-{1-[2-(2,6-dioxopiperidin-3-yl)-1-oxo-2,3-dihydro-1H-isoindol-5-yl]piperidin-4-yl}propan-2-yl)piperazin-1-yl]pyrimidin-4-yl}amino)-1-ethyl-2-oxo-1,2-dihydroquinolin-3-yl]oxy}-N-methylacetamide] |
|  |  | 50 to 70 | 10 to 50 | CCCn1c(=O)c(OCC(=O)NC)cc2cc(Nc3nc(N4CCN(CC5CCN(c6ccc7c(c6)C(=O)N(C6CCC(=O)NC6=O)C7=O)CC5)CC4)ncc3Cl)ccc21 (stereo not drawn) [compound 314, 2-{[6-({5-chloro-2-[4-({1-[2-(2,6-dioxopiperidin-3-yl)-1,3-dioxo-2,3-dihydro-1H-isoindol-5-yl]piperidin-4-yl}methyl)piperazin-1-yl]pyrimidin-4-yl}amino)-2-oxo-1-propyl-1,2-dihydroquinolin-3-yl]oxy}-N-methylacetamide] |
|  |  | 50 to 70 | 10 to 50 | CNC(=O)COc1cc2cc(Nc3nc(N4CCN(C(C)(C)C5CCN(c6ccc(C(=O)NC7CCC(=O)NC7=O)c(OC)c6)CC5)CC4)ncc3Cl)ccc2n(C)c1=O (stereo not drawn) [compound 315, 4-[4-(2-{4-[5-chloro-4-({1-methyl-3-[(methylcarbamoyl)methoxy]-2-oxo-1,2-dihydroquinolin-6-yl}amino)pyrimidin-2-yl]piperazin-1-yl}propan-2-yl)piperidin-1-yl]-N-(2,6-dioxopiperidin-3-yl)-2-methoxybenzamide] |
|  |  | 50 to 70 | < 10 | CCn1c(=O)c(OCC(=O)NC)cc2cc(Nc3nc(N4CCC(CN5CC(C6CN(c7ccc8c(c7)C(=O)N(C7CCC(=O)NC7=O)C8=O)C6)C5)CC4)ncc3Cl)ccc21 (stereo not drawn) [compound 316, 2-{[6-({5-chloro-2-[4-({1′-[2-(2,6-dioxopiperidin-3-yl)-1,3-dioxo-2,3-dihydro-1H-isoindol-5-yl]-[3,3′-biazetidin]-1-yl}methyl)piperidin-1-yl]pyrimidin-4-yl}amino)-1-ethyl-2-oxo-1,2-dihydroquinolin-3-yl]oxy}-N-methylacetamide] |
|  |  | 50 to 70 | < 10 | CCCCn1c(=O)c(OCC(=O)NC)cc2cc(Nc3nc(N4CCN(CC5CCN(c6ccc7c(c6)C(=O)N(C6CCC(=O)NC6=O)C7=O)CC5)CC4)ncc3Cl)ccc21 (stereo not drawn) [compound 317, 2-{[1-butyl-6-({5-chloro-2-[4-({1-[2-(2,6-dioxopiperidin-3-yl)-1,3-dioxo-2,3-dihydro-1H-isoindol-5-yl]piperidin-4-yl}methyl)piperazin-1-yl]pyrimidin-4-yl}amino)-2-oxo-1,2-dihydroquinolin-3-yl]oxy}-N-methylacetamide] |
|  |  | 50 to 70 | 50 to 100 | CCCn1c(=O)c(OCC(=O)NC)cc2cc(Nc3nc(N4CCC[C@H](COc5cccc6c5C(=O)N(C5CCC(=O)NC5=O)C6=O)C4)ncc3Cl)ccc21 (stereo partly drawn) [compound 318, 2-{[6-({5-chloro-2-[(3S)-3-({[2-(2,6-dioxopiperidin-3-yl)-1,3-dioxo-2,3-dihydro-1H-isoindol-4-yl]oxy}methyl)piperidin-1-yl]pyrimidin-4-yl}amino)-2-oxo-1-propyl-1,2-dihydroquinolin-3-yl]oxy}-N-methylacetamide] |
|  |  | < 50 | 50 to 100 | CNC(=O)COc1cc2cc(Nc3nc(N4CCN(CC5CCN(c6cccc(C(=O)NC7CCC(=O)NC7=O)c6)CC5)CC4)ncc3Cl)ccc2n(C)c1=O (stereo not drawn) [compound 319, 3-[4-({4-[5-chloro-4-({1-methyl-3-[(methylcarbamoyl)methoxy]-2-oxo-1,2-dihydroquinolin-6-yl}amino)pyrimidin-2-yl]piperazin-1-yl}methyl)piperidin-1-yl]-N-(2,6-dioxopiperidin-3-yl)benzamide] |
|  |  | < 50 | < 10 | CNC(=O)COc1cc2cc(Nc3nc(N4CCN(CC5CCN(c6cccc(C(=O)NC7CCC(=O)NC7=O)n6)CC5)CC4)ncc3Cl)ccc2n(C)c1=O (stereo not drawn) [compound 320, 6-[4-({4-[5-chloro-4-({1-methyl-3-[(methylcarbamoyl)methoxy]-2-oxo-1,2-dihydroquinolin-6-yl}amino)pyrimidin-2-yl]piperazin-1-yl}methyl)piperidin-1-yl]-N-(2,6-dioxopiperidin-3-yl)pyridine-2-carboxamide] |
|  |  | 50 to 70 | < 10 | CNC(=O)COc1cc2cc(Nc3nc(N4CCN(CCN5CCN(c6cccc7c6C(=O)N(C6CCC(=O)NC6=O)C7=O)CC5)CC4)ncc3Cl)ccc2n(C)c1=O (stereo not drawn) [compound 321, 2-{[6-({5-chloro-2-[4-(2-{4-[2-(2,6-dioxopiperidin-3-yl)-1,3-dioxo-2,3-dihydro-1H-isoindol-4-yl]piperazin-1-yl}ethyl)piperazin-1-yl]pyrimidin-4-yl}amino)-1-methyl-2-oxo-1,2-dihydroquinolin-3-yl]oxy}-N-methylacetamide] |
|  |  | 50 to 70 | 10 to 50 | CNC(=O)COc1cc2cc(Nc3nc(N4CCN(CCC5CCN(c6ccc7c(c6)C(=O)N(C6CCC(=O)NC6=O)C7=O)CC5)CC4)ncc3Cl)ccc2n(C)c1=O (stereo not drawn) [compound 322, 2-{[6-({5-chloro-2-[4-(2-{1-[2-(2,6-dioxopiperidin-3-yl)-1,3-dioxo-2,3-dihydro-1H-isoindol-5-yl]piperidin-4-yl}ethyl)piperazin-1-yl]pyrimidin-4-yl}amino)-1-methyl-2-oxo-1,2-dihydroquinolin-3-yl]oxy}-N-methylacetamide] |
|  |  | ≥ 70 | < 10 | CNC(=O)COc1cc2cc(Nc3nc(N4CCN(CC5CCN(c6ccc7c(c6)C(=O)N(C6CCC(=O)NC6=O)C7=O)CC5)CC4)ncc3Cl)ccc2n(C2CC2)c1=O (stereo not drawn) [compound 323, 2-{[6-({5-chloro-2-[4-({1-[2-(2,6-dioxopiperidin-3-yl)-1,3-dioxo-2,3-dihydro-1H-isoindol-5-yl]piperidin-4-yl}methyl)piperazin-1-yl]pyrimidin-4-yl}amino)-1-cyclopropyl-2-oxo-1,2-dihydroquinolin-3-yl]oxy}-N-methylacetamide] |
|  |  | 50 to 70 | < 10 | CCCCn1c(=O)c(OCC(=O)NC)cc2cc(Nc3nc(N4CCC[C@H](COc5cccc6c5C(=O)N(C5CCC(=O)NC5=O)C6=O)C4)ncc3Cl)ccc21 (stereo partly drawn) [compound 324, 2-{[1-butyl-6-({5-chloro-2-[(3S)-3-({[2-(2,6-dioxopiperidin-3-yl)-1,3-dioxo-2,3-dihydro-1H-isoindol-4-yl]oxy}methyl)piperidin-1-yl]pyrimidin-4-yl}amino)-2-oxo-1,2-dihydroquinolin-3-yl]oxy}-N-methylacetamide] |
|  |  | 50 to 70 | < 10 | CNC(=O)COc1cc2cc(Nc3nc(N4CCN(CC5CCN(c6cccc(C(=O)NC7CCC(=O)NC7=O)c6OC)CC5)CC4)ncc3Cl)ccc2n(C)c1=O (stereo not drawn) [compound 325, 3-[4-({4-[5-chloro-4-({1-methyl-3-[(methylcarbamoyl)methoxy]-2-oxo-1,2-dihydroquinolin-6-yl}amino)pyrimidin-2-yl]piperazin-1-yl}methyl)piperidin-1-yl]-N-(2,6-dioxopiperidin-3-yl)-2-methoxybenzamide] |
